{"source": "patent US5061711A", "about": "“Method of curing liver diseases by using pyrrolo quinoline quinone triesters and novel pyrrolo quinoline quinone triesters” (Mitsubishi Gas Chemical Company, Inc., priority 1989, dated 1991)", "key": {"male mice SPF-ICR": {"tested_on": "male mice SPF-ICR", "test": "Acute toxicity test", "settings": "mouse, in vivo", "experimental": "To male mice SPF-ICR five weeks old (supplied by Japan Charles River Co.) were intraperitoneally administered PQQ.2Na, PQQ trimethyl ester and PQQ triallyl ester at dosages of 40, 80, 160 and 200 mg per kg of body weight of mouse, respectively and they were bred for 14 days at 25° C. One group consisted of 8 mice. For administration, PQQ.2Na was dissolved in physiological saline and PQQ trimethyl ester and PQQ triallyl ester were suspended in 1%Tween 80-containing physiological saline, respectively."}, "mice": {"tested_on": "mice", "test": "Kidney toxicity determined by urine test", "format": "in vivo, mouse", "experimental": "(2) Kidney toxicity determined by urine test\nPQQ.2Na, PQQ trimethyl ester and PQQ triallyl ester were intraperitoneally administered to mice and they were bred in the same manner as in the above acute toxicity test. The doses per kg of body weight of mouse were 20, 40 and 80 mg for PQQ.2Na and 20, 40, 80, 160 and 200 mg for PQQ triesters. Urine was collected every day and glucose concentration was examined using clinical examination reagent (trademark: […] II manufactured by Miles.Sankyo Co.)."}, "[1]": {"tested_on": "carbon tetrachloride (CCl4)-induced liver diseases", "test": "Pharmacological activity (1) on carbon tetrachloride (CCl4)-induced liver diseases", "format": "in vivo, SD rats", "settings": "i.p. 5 mg/kg rat twice, CCl4 1 ml/kg rat, 24 hours, average of five rats", "experimental": "Pharmacological activity (1) of PQQ triesters on carbon tetrachloride (CCl4)-induced liver diseases:\nTwenty SD rats (male, 7 weeks old, body weight: about 220 g; supplied by Japan Charles River Co.) were divided to four groups (A-D) each consisting of five rats. All rats were fasted for 16 hours and 1.1 ml of a solution containing 1 mg/ml of PQQ trimethyl ester was intraperitoneally administered to the rats of group C and 1.1 ml of a solution containing 1 mg/ml of PQQ triallyl ester was intraperitoneally administered to the rats of group D and after lapse of 40 minutes, the same PQQ triesters in the same dose as above was intraperitoneally administered, respectively. For administration, the PQQ triesters were suspended in physiological saline containing 1 % Tween 80, 1.1 ml of physiological saline was intraperitoneally administered to the rats of group B in place of PQQ triesters. Furthermore, after 20 minutes, 2.2 ml of 10 vol% carbon tetrachloride (solution in olive oil) was administered to stomach of the rats of groups B-D. Neither PQQ triesters nor carbon tetrachloride were administered to the rats of group A.\n(§1) After 24 hours from administration of carbon tetrachloride, blood was collected from abdominal main artery and serum was obtained by centrifugation therefrom.\nGPT, GOT and amount of total bilirubin in the serum were measured by clinical examination reagent (trademark: FUJI DRYCHEMSLIDE manufactured by Fuji Photo Film Co., Ltd.). The results are shown in Table 5 by average value of five rats."}, "[2]": {"tested_on": "carbon tetrachloride (CCl4)-induced liver diseases", "test": "Pharmacological activity (2) on carbon tetrachloride (CCl4)-induced liver diseases", "format": "in vivo, SD rats", "settings": "CCl4 1 ml/kg rat i.p., 24 hours, average of five rats; for Total bilirubin in serum: CCl4 alone 0.9; for GPT in serum: CCl4 alone 949; for GOT in serum: CCl4 alone 1970", "experimental": "Pharmacological activity (2) of PQQ triesters on carbon tetrachloride (CCl4)-induced liver diseases:\nForty SD rats (male, 7 weeks old, body weight: about 260 g; supplied by Japan Charles River Co.) were divided to eight groups (A-H) each consisting of five rats. All rats were fasted for 18 hours and 1.3 ml of a solution containing 2 mg/ml of PQQ trimethyl ester was intraperitoneally administered to the rats of group C, 1.3 ml of a solution containing 10 mg/ml of PQQ trimethyl ester was intraperitoneally administered to the rats of group D, 1.3 ml of a solution containing 20 mg/ml of PQQ trimethyl ester was intraperitoneally administered to the rats of group E, 1.3 ml of a solution containing 2 mg/ml of PQQ triallyl ester was intraperitoneally administered to the rats of group F, 1.3 ml of a solution containing […] was intraperitoneally administered to the rats of group G, and 1.3 ml of a solution containing 20 mg/ml of PQQ triallyl ester was intraperitoneally administered to the rats of group H and furthermore, after lapse of 50 minutes, the same PQQ triesters in the same doses as above were intraperitoneally administered to respective rats. In these cases, the PQQ triesters were suspended in physiological saline containing 1% Tween 80 and administered to the rats. 1.3 ml of physiological saline was intraperitoneally administered to the rats of group B in place of PQQ triesters. […] Neither PQQ triesters nor carbon tetrachloride were administered to the rats of group A.\nas §1\nGPT, […] and amount of total bilirubin in the serum were measured by clinical examination reagent (trademark: FUJI DRYCHEMSLIDE manufactured by Fuji Photo Film Co., Ltd.). The results are shown in Table 6 by average value of five rats."}, "[3]": {"settings": "bovine, not told, 960 min", "procedure": "Each compound dissolved in 10 mM HEPES buffer (containing 1%DMSO in the case of PQQ triesters) was put in an apparatus for measurement of membrane permeation constant and left to stand for 16 hours at 35 ° C. and then amount of the compound which migrated was measured by ultraviolet absorption (243 nm for PQQ 2Na and 255 nm for PQQ triester) to obtain membrane permeation constant."}}}
{"smiles": "COC(=O)c1cc(C(=O)OC)c2c(n1)C(=O)C(=O)c1cc(C(=O)OC)[nH]c1-2", "note": "[PQQ trimethyl ester]", "values": [{"measurement": "mice died", "setting": "male mice SPF-ICR", "result": "no mice died"}, {"measurement": "glucose in urine", "setting": "mice; i.p. 20 mg/kg, day 1", "result": "-"}, {"measurement": "glucose in urine", "setting": "mice; i.p. 20 mg/kg, day 2", "result": "-"}, {"measurement": "glucose in urine", "setting": "mice; i.p. 20 mg/kg, day 3", "result": "-"}, {"measurement": "glucose in urine", "setting": "mice; i.p. 20 mg/kg, day 6", "result": "-"}, {"measurement": "glucose in urine", "setting": "mice; i.p. 20 mg/kg, day 7", "result": "-"}, {"measurement": "glucose in urine", "setting": "mice; i.p. 20 mg/kg, day 8", "result": "-"}, {"measurement": "glucose in urine", "setting": "mice; i.p. 20 mg/kg, day 10", "result": "-"}, {"measurement": "glucose in urine", "setting": "mice; i.p. 20 mg/kg, day 13", "result": "-"}, {"measurement": "glucose in urine", "setting": "mice; i.p. 20 mg/kg, day 14", "result": "-"}, {"measurement": "glucose in urine", "setting": "mice; i.p. 40 mg/kg, day 1", "result": "-"}, {"measurement": "glucose in urine", "setting": "mice; i.p. 40 mg/kg, day 2", "result": "-"}, {"measurement": "glucose in urine", "setting": "mice; i.p. 40 mg/kg, day 3", "result": "-"}, {"measurement": "glucose in urine", "setting": "mice; i.p. 40 mg/kg, day 6", "result": "-"}, {"measurement": "glucose in urine", "setting": "mice; i.p. 40 mg/kg, day 7", "result": "-"}, {"measurement": "glucose in urine", "setting": "mice; i.p. 40 mg/kg, day 8", "result": "-"}, {"measurement": "glucose in urine", "setting": "mice; i.p. 40 mg/kg, day 10", "result": "-"}, {"measurement": "glucose in urine", "setting": "mice; i.p. 40 mg/kg, day 13", "result": "-"}, {"measurement": "glucose in urine", "setting": "mice; i.p. 40 mg/kg, day 14", "result": "-"}, {"measurement": "glucose in urine", "setting": "mice; i.p. 80 mg/kg, day 1", "result": "-"}, {"measurement": "glucose in urine", "setting": "mice; i.p. 80 mg/kg, day 2", "result": "-"}, {"measurement": "glucose in urine", "setting": "mice; i.p. 80 mg/kg, day 3", "result": "-"}, {"measurement": "glucose in urine", "setting": "mice; i.p. 80 mg/kg, day 6", "result": "-"}, {"measurement": "glucose in urine", "setting": "mice; i.p. 80 mg/kg, day 7", "result": "-"}, {"measurement": "glucose in urine", "setting": "mice; i.p. 80 mg/kg, day 8", "result": "-"}, {"measurement": "glucose in urine", "setting": "mice; i.p. 80 mg/kg, day 10", "result": "-"}, {"measurement": "glucose in urine", "setting": "mice; i.p. 80 mg/kg, day 13", "result": "-"}, {"measurement": "glucose in urine", "setting": "mice; i.p. 80 mg/kg, day 14", "result": "-"}, {"measurement": "glucose in urine", "setting": "mice; i.p. 160 mg/kg, day 1", "result": "-"}, {"measurement": "glucose in urine", "setting": "mice; i.p. 160 mg/kg, day 2", "result": "-"}, {"measurement": "glucose in urine", "setting": "mice; i.p. 160 mg/kg, day 3", "result": "-"}, {"measurement": "glucose in urine", "setting": "mice; i.p. 160 mg/kg, day 6", "result": "-"}, {"measurement": "glucose in urine", "setting": "mice; i.p. 160 mg/kg, day 7", "result": "-"}, {"measurement": "glucose in urine", "setting": "mice; i.p. 160 mg/kg, day 8", "result": "-"}, {"measurement": "glucose in urine", "setting": "mice; i.p. 160 mg/kg, day 10", "result": "-"}, {"measurement": "glucose in urine", "setting": "mice; i.p. 160 mg/kg, day 13", "result": "-"}, {"measurement": "glucose in urine", "setting": "mice; i.p. 160 mg/kg, day 14", "result": "-"}, {"measurement": "glucose in urine", "setting": "mice; i.p. 200 mg/kg, day 1", "result": "-"}, {"measurement": "glucose in urine", "setting": "mice; i.p. 200 mg/kg, day 2", "result": "-"}, {"measurement": "glucose in urine", "setting": "mice; i.p. 200 mg/kg, day 3", "result": "-"}, {"measurement": "glucose in urine", "setting": "mice; i.p. 200 mg/kg, day 6", "result": "-"}, {"measurement": "glucose in urine", "setting": "mice; i.p. 200 mg/kg, day 7", "result": "-"}, {"measurement": "glucose in urine", "setting": "mice; i.p. 200 mg/kg, day 8", "result": "-"}, {"measurement": "glucose in urine", "setting": "mice; i.p. 200 mg/kg, day 10", "result": "-"}, {"measurement": "glucose in urine", "setting": "mice; i.p. 200 mg/kg, day 13", "result": "-"}, {"measurement": "glucose in urine", "setting": "mice; i.p. 200 mg/kg, day 14", "result": "-"}, {"measurement": "glucose in urine (in words)", "setting": "mice; i.p., all doses", "result": "no glucose was detected"}, {"measurement": "Total bilirubin in serum", "setting": "[1]; CCl4 alone 1.2", "result": 0.7, "unit": "mg/dL"}, {"measurement": "GPT in serum", "setting": "[1]; CCl4 alone 818", "result": 505, "unit": "U/l"}, {"measurement": "GOT in serum", "setting": "[1]; CCl4 alone 3308", "result": 2193, "unit": "U/l"}, {"measurement": "Total bilirubin in serum", "setting": "[2]; i.p. 10 mg/kg rat twice", "result": 0.9, "unit": "mg/dL"}, {"measurement": "GPT in serum", "setting": "[2]; i.p. 10 mg/kg rat twice", "result": 479, "unit": "U/l"}, {"measurement": "GOT in serum", "setting": "[2]; i.p. 10 mg/kg rat twice", "result": 1263, "unit": "U/l"}, {"measurement": "Total bilirubin in serum", "setting": "[2]; i.p. 50 mg/kg rat twice", "result": 0.7, "unit": "mg/dL"}, {"measurement": "GPT in serum", "setting": "[2]; i.p. 50 mg/kg rat twice", "result": 645, "unit": "U/l"}, {"measurement": "GOT in serum", "setting": "[2]; i.p. 50 mg/kg rat twice", "result": 1543, "unit": "U/l"}, {"measurement": "Total bilirubin in serum", "setting": "[2]; i.p. 100 mg/kg rat twice", "result": 0.8, "unit": "mg/dL"}, {"measurement": "GPT in serum", "setting": "[2]; i.p. 100 mg/kg rat twice", "result": 676, "unit": "U/l"}, {"measurement": "GOT in serum", "setting": "[2]; i.p. 100 mg/kg rat twice", "result": 1605, "unit": "U/l"}, {"measurement": "Membrane permeation constant", "setting": "[3]", "result": "1.41 ± 0.48 10^-7 cm^2 · sec^-1"}, {"measurement": "membrane permeation constant relative to that of PQQ.2Na", "setting": "[3]", "result": "about 2 times"}]}
